From BindingDB's records for doi:10.1016/s0960-894x(03)00528-6 (Aston University, 2003)

Molecular target: Arachidonate 15-lipoxygenase (Oryctolagus cuniculus)
Test: In vitro inhibitory activity of compound on rabbit reticulocyte 15-lipoxygenase

| Structure (SMILES) | IC50 |
| --- | --- |
| O=C(Nc1ccc(O)c(O)c1)c1ccc(NCc2ccccc2O)cc1 [N-(3,4-Dihydroxy-phenyl)-4-(2-hydroxy-benzylamino)-benzamide] | 1010 nM |
| O=C(Nc1ccc(O)c(O)c1)c1ccc(NC(=O)c2ccccc2O)cc1 [N-(4-{[(3,4-dihydroxyphenyl)amino]carbonyl}phenyl)-2-hydroxybenzamide] | 1270 nM |
| O=C(CCc1ccc(NC(=O)c2ccccc2O)cc1)Nc1ccc(O)c(O)c1 [N-{4-[2-(3,4-Dihydroxy-phenylcarbamoyl)-ethyl]-phenyl}-2-hydroxy-benzamide] | 1450 nM |
| O=C(/C=C/c1ccc(NC(=O)c2ccccc2O)cc1)Nc1ccc(O)c(O)c1 [N-{4-[2-(3,4-Dihydroxy-phenylcarbamoyl)-vinyl]-phenyl}-2-hydroxy-benzamide] | 1470 nM |
| O=C(Nc1ccc(NC(=O)c2ccccc2O)cc1)Nc1ccc(O)c(O)c1 [N-{4-[3-(3,4-Dihydroxy-phenyl)-ureido]-phenyl}-2-hydroxy-benzamide] | 1510 nM |
